Experimental findings from US10077261B2, “Imidazolin-5-one derivative useful as FASN inhibitors for the treatment of cancer” (Janssen Pharmaceutica NV, priority 2012, dated 2018) are described below.

A word on the inhibition: it is the drop in the measured response relative to a control, in per cent.

The target of experiment [1] is Fatty Acid Synthase Keto-reductase Domain (FASN KR) (Homo sapiens, UniProt P49327). The experiment is described as follows: Fatty Acid Synthase keto-reductase domain (FASN KR) inhibition, NADPH oxidation at 340 nm.
Experimental: After 20 minutes incubation at room temperature the plate was measured again (T2).
The decrease in absorbance was calculated as (Absorbance before incubation T1)−(Absorbance following incubation T2).
A plot of Controlmin versus test compound concentration was fitted to a 4-parameter logistic curve using a non-linear least squares regression method.
For experiment [2], the system named is A2780 ovarian cells. The experiment is described as follows: A2780 ovarian cell proliferation assay in lipid reduced medium, with palmitate (MTT). Particulars: Homo sapiens, A2780, 96 h; read-out: pIC50 A2780 Ovarian Cell, With Palmitate (converted). In kind it is cell-based. The gist of the method:
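In this palmitate-supplemented format, compound dilutions (30 μM down to 0.01 μM) are added to cells in lipid-reduced serum with 25 μM palmitate, 0.2% fatty-acid-free BSA and 0.25% ethanol. After four days (96 h) MTT absorbance at 544 nm is recorded and fitted by minimum sum of squares.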

Experiment [3] concerns A2780 ovarian cells. Nature of the experiment: A2780 ovarian cell proliferation assay in lipid reduced medium, without palmitate (MTT). Type of experiment: cell-based. Particulars: Homo sapiens, A2780, 96 h; read-out: pIC50 A2780 Ovarian Cell, Without Palmitate (converted).
The target of experiment [4] is T1, hFASN enzyme (full length) (Homo sapiens, UniProt P49327).
T1 construct: 10 μL hFASN enzyme (full length, 300 ng, purified in house); made in house
Nature of the experiment: Fatty Acid Synthase (FASN) inhibition scintillation proximity assay. Type of experiment: biochemical. Particulars: for inhibition at 10 µM: read-out: Human FASN % inhibition @ 10 μM, 10 μM test compound; for IC50: read-out: Human FASN pIC50 (converted). The gist of the method:
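Scintillation proximity format: in-house full-length enzyme, 300 ng per well, pH 7.5 phosphate/DTT buffer, ³H-acetyl-CoA and malonyl-CoA. Emission counted on LEADseeker at 610 nm at least 24 h after stopping.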
In general terms: In a scintillation proximity assay essentially only radioactivity close to the scintillant gives light.

T1 sequence (P49327 whole entry): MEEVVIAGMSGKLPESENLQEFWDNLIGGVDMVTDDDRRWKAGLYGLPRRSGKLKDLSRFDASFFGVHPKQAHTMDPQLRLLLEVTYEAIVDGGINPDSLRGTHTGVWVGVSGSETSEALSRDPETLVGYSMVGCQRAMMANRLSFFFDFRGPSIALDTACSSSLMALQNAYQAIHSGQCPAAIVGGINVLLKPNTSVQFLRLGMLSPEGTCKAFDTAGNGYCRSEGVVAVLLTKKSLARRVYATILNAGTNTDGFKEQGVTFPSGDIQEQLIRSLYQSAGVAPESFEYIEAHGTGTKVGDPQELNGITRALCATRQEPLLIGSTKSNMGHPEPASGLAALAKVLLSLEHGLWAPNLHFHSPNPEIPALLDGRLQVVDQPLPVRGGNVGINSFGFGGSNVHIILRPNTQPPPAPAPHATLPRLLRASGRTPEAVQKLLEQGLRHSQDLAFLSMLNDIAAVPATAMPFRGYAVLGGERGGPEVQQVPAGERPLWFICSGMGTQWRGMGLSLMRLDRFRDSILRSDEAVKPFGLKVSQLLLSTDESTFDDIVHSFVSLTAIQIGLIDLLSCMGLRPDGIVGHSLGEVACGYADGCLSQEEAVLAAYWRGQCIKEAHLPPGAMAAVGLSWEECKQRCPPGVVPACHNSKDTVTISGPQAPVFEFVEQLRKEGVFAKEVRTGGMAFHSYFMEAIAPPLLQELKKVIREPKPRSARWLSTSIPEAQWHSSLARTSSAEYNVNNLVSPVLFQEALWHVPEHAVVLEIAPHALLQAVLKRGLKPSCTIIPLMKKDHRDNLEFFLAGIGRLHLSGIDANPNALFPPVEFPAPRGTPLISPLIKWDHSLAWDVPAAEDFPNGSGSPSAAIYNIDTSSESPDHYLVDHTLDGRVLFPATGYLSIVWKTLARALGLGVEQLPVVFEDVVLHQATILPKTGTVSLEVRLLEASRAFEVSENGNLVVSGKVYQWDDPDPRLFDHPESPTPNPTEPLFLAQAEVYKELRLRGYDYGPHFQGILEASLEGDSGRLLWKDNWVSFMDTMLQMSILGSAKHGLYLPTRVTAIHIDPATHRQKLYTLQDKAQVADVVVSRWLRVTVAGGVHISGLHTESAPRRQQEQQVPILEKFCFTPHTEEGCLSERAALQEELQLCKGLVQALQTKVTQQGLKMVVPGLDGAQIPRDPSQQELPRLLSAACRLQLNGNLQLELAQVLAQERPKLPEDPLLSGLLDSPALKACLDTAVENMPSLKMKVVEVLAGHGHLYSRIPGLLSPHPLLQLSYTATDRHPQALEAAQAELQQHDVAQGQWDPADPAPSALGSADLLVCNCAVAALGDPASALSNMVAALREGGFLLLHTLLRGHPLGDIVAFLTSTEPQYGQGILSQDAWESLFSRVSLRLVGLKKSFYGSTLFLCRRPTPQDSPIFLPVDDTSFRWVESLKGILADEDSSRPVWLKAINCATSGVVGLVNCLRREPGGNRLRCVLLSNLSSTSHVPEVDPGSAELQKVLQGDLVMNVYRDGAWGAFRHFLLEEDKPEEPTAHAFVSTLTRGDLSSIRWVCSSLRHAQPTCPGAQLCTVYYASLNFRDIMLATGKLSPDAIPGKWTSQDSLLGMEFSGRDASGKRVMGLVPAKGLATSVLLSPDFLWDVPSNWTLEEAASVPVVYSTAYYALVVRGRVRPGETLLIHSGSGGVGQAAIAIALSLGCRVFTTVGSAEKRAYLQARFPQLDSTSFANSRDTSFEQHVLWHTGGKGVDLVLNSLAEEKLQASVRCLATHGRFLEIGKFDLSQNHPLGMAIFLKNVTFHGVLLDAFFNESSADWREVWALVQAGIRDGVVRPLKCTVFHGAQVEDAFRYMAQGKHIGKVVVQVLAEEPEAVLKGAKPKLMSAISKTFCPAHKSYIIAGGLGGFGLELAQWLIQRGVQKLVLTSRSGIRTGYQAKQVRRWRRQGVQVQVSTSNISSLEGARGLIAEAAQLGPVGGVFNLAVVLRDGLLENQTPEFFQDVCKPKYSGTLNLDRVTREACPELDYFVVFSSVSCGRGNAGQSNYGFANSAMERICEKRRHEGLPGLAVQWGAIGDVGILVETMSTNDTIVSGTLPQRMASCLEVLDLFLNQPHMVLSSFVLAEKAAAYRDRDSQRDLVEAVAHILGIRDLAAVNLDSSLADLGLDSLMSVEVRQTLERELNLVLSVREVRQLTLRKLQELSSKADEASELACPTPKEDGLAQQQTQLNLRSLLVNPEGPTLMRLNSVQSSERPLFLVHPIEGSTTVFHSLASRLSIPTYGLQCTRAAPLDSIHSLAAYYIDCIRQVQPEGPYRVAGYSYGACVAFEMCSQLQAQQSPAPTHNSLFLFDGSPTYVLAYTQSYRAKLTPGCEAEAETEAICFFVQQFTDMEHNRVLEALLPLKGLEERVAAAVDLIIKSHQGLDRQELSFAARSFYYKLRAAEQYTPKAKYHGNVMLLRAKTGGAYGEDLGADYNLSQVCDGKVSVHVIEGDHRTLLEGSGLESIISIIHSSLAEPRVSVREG
Fatty Acid Synthase Keto-reductase Domain (FASN KR), sequence (P49327 whole entry, the tested form may be a part): as the sequence (P49327 whole entry) above

With `N#Cc1ccc(-c2ccc(C3=NC4(CCCC4)C(=O)N3C[C@@H]3CCN(C(=O)C4CC4)C3)cc2)cc1` [compound 1, 4′-(3-{[(3R)-1-(Cyclopropylcarbonyl)pyrrolidin-3-yl]methyl}-4-oxo-1,3-diazaspiro[4.4]non-1-en-2-yl)biphenyl-4-carbonitrile], the IC50 was 759 nM in experiment [1], more than 10000 nM in experiment [2], 1120 nM in experiment [3] and 575 nM in experiment [4]. In addition, the inhibition at 10 µM in experiment [4] turned out to be 93%.
`O=C(C1CC1)N1CC[C@@H](CN2C(=O)C3(CCCC3)N=C2c2ccc(-c3ccc4[nH]ccc4c3)cc2)C1` [compound 4, 3-{[(3R)-1-(Cyclopropylcarbonyl)pyrrolidin-3-yl]methyl}-2-[4-(1H-indol-5-yl)phenyl]-1,3-diazaspiro[4.4]non-1-en-4-one]: the IC50 is 45.7 nM in experiment [1], 5130 nM in experiment [2], 58.9 nM in experiment [3] and 33.9 nM in experiment [4]. In experiment [4], the inhibition at 10 µM turned out to be 103%.
Consider `O=C(C1CC1)N1CCC(CN2C(=O)C3(CC3)N=C2c2ccc(-c3ccc4[nH]ccc4c3)cc2)CC1` [compound 10, 6-{[1-(Cyclopropylcarbonyl)piperidin-4-yl]methyl}-5-[4-(1H-indol-5-yl)phenyl]-4,6-diazaspiro[2.4]hept-4-en-7-one], for which the IC50 in experiment [1] was 501 nM; in experiment [2] it was more than 10000 nM; in experiment [3], 871 nM; in experiment [4], 204 nM. Besides, the inhibition at 10 µM in experiment [4] was found to be 89.7%.
For `O=C(C1CC1)N1CC[C@@H](CN2C(=O)C3(CCCC3)N=C2c2ccc(-c3ccc4ncccc4c3)cc2)C1` [compound 11, 3-{[(3R)-1-(Cyclopropylcarbonyl)pyrrolidin-3-yl]methyl}-2-(4-quinolin-6-ylphenyl)-1,3-diazaspiro[4.4]non-1-en-4-one] the same measures were 2040 nM, more than 10000 nM, approximately 3020 nM, 933 nM and 82.2%.
For `O=C(C1CC1)N1CC[C@@H](CN2C(=O)C3(CCCC3)N=C2c2ccc(-c3ccc4cnccc4c3)cc2)C1` [compound 12, 3-{[(3R)-1-(Cyclopropylcarbonyl)pyrrolidin-3-yl]methyl}-2-(4-isoquinolin-6-ylphenyl)-1,3-diazaspiro[4.4]non-1-en-4-one], the IC50 was 49 nM in experiment [1], 3800 nM in experiment [2], approximately 36.3 nM in experiment [3] and 25.7 nM in experiment [4]. Moreover, in experiment [4], the inhibition at 10 µM worked out at 99.4%.
The matching figures for `COC(=O)N1CCC2(CC1)N=C(c1ccc(-c3ccc4occc4c3)cc1)N(C[C@@H]1CCN(C(=O)C3CC3)C1)C2=O` [compound 14, (R)-Methyl 2-(4-(benzofuran-5-yl)phenyl)-3-((1-(cyclopropanecarbonyl)pyrrolidin-3-yl)methyl)-4-oxo-1,3,8-triazaspiro[4.5]dec-1-ene-8-carboxylate]: 302 nM, more than 10000 nM, 1230 nM, 148 nM and 98.2%.
For `COC(=O)N1CCC2(CC1)N=C(c1ccc(-c3ccc4[nH]ccc4c3)cc1)N(C[C@@H]1CCN(C(=O)C3CC3)C1)C2=O` [compound 15, Methyl 3-{[(3R)-1-(cyclopropylcarbonyl)pyrrolidin-3-yl]methyl}-2-[4-(1H-indol-5-yl)phenyl]-4-oxo-1,3,8-triazaspiro[4.5]dec-1-ene-8-carboxylate] the same measures were 70.8 nM, more than 10000 nM, approximately 63.1 nM, 43.7 nM and 113%.
Regarding `COC(=O)N1CCC2(CC1)N=C(c1ccc(-c3ccc4[nH]ccc4c3)cc1)N(CC1CN(C(=O)C3CC3)C1)C2=O` [compound 17, Methyl 3-{[1-(cyclopropylcarbonyl)azetidin-3-yl]methyl}-2-[4-(1H-indol-5-yl)phenyl]-4-oxo-1,3,8-triazaspiro[4.5]dec-1-ene-8-carboxylate], the IC50 in experiment [1] was 347 nM; in experiment [2], more than 10000 nM; in experiment [3] it was 398 nM; in experiment [4] it was 229 nM. Moreover, the inhibition at 10 µM in experiment [4] is 97%.
The matching figures for `O=C(C1CC1)N1CCC(CN2C(=O)C3(CC3)N=C2c2ccc(-c3ccc4cnccc4c3)cc2)CC1` [compound 20, 6-{[1-(Cyclopropylcarbonyl)piperidin-4-yl]methyl}-5-(4-isoquinolin-6-ylphenyl)-4,6-diazaspiro[2.4]hept-4-en-7-one]: 676 nM, 8130 nM, 646 nM, 158 nM and 101%.
For `Cn1ncc2ccc(-c3ccc(C4=NC5(CC5)C(=O)N4C[C@@H]4CCN(C(=O)C5CC5)C4)cc3)cc21` [compound 27, 6-{[(3R)-1-(Cyclopropylcarbonyl)pyrrolidin-3-yl]methyl}-5-[4-(1-methyl-1H-indazol-6-yl)phenyl]-4,6-diazaspiro[2.4]hept-4-en-7-one] the same measures were 120 nM, more than 10000 nM, 251 nM, 70.8 nM and 100%.
As to `O=C(C1CC1)N1CCC(CN2C(=O)C3(CC3)N=C2c2ccc(-c3ccc4[nH]ncc4c3)cc2)CC1` [compound 29, 6-{[1-(Cyclopropylcarbonyl)piperidin-4-yl]methyl}-5-[4-(1H-indazol-5-yl)phenyl]-4,6-diazaspiro[2.4]hept-4-en-7-one], the IC50 in experiment [1] was 2340 nM; in experiment [2], more than 10000 nM; in experiment [3], 3390 nM; in experiment [4], 933 nM. In addition, in experiment [4], the inhibition at 10 µM was 81.7%.
For `O=C(C1CC1)N1CC[C@@H](CN2C(=O)C3(CC3)N=C2c2ccc(-c3ccc4ccncc4c3)cc2)C1` [compound 30, 6-{[(3R)-1-(Cyclopropylcarbonyl)pyrrolidin-3-yl]methyl}-5-(4-isoquinolin-7-ylphenyl)-4,6-diazaspiro[2.4]hept-4-en-7-one] the same measures were 282 nM, more than 10000 nM, 380 nM, 57.5 nM and 108%.
For `O=C(C1CC1)N1CC[C@@H](CN2C(=O)C3(CC3)N=C2c2ccc(-c3ccc4[nH]ccc4c3)cc2)C1` [compound 31, 6-{[(3R)-1-(Cyclopropylcarbonyl)pyrrolidin-3-yl]methyl}-5-[4-(1H-indol-5-yl)phenyl]-4,6-diazaspiro[2.4]hept-4-en-7-one] the same measures were 35.5 nM, more than 10000 nM, 28.8 nM, 21.9 nM and 107%.
For `O=C(C1CC1)N1CC[C@@H](CN2C(=O)C3(CCCC3)N=C2c2ccc(-c3ccc4cc[nH]c4c3)cc2)C1` [compound 33, 3-{[(3R)-1-(Cyclopropylcarbonyl)pyrrolidin-3-yl]methyl}-2-[4-(1H-indol-6-yl)phenyl]-1,3-diazaspiro[4.4]non-1-en-4-one] the same measures were 56.2 nM, more than 10000 nM, 251 nM, 25.7 nM and 109%.
As to `Cn1cc(-c2ccc(-c3ccc(C4=NC5(CCOC5)C(=O)N4CC4CCN(C(=O)C(F)(F)F)C4)cc3)cc2)cn1` (centres unmarked) [compound 940, 2-(4′-(1-methyl-1H-pyrazol-4-yl)-[1,1′-biphenyl]-4-yl)-3-((1-(2,2,2-trifluoroacetyl)pyrrolidin-3-yl)methyl)-7-oxa-1,3-diazaspiro[4.4]non-1-en-4-one], the IC50 in experiment [2], in experiment [3] and in experiment [4] was more than 10000 nM throughout. Moreover, in experiment [4], the inhibition at 10 µM was 33%.
Turning to `Cn1cc(-c2ccc(-c3ccc(C4=NC5(CCOC5)C(=O)N4CC4CCN(C(=O)c5nccs5)C4)cc3)cc2)cn1` (centres unmarked) [compound 943, 2-(4′-(1-methyl-1H-pyrazol-4-yl)-[1,1′-biphenyl]-4-yl)-3-((1-(thiazole-2-carbonyl)pyrrolidin-3-yl)methyl)-7-oxa-1,3-diazaspiro[4.4]non-1-en-4-one], the IC50 in experiment [2], in experiment [3] and in experiment [4] was more than 10000 nM throughout. The inhibition at 10 µM in experiment [4] is 9%.
Regarding `COC(=O)N1CC2(C1)N=C(c1ccc(-c3ccc4occc4c3)cc1)N(C[C@@H]1CCN(C(=O)c3nccs3)C1)C2=O` [compound 957, (R)-methyl 6-(4-(benzofuran-5-yl)phenyl)-8-oxo-7-((1-(thiazole-2-carbonyl)pyrrolidin-3-yl)methyl)-2,5,7-triazaspiro[3.4]oct-5-ene-2-carboxylate], the IC50 in experiment [2], in experiment [3] and in experiment [4] was more than 10000 nM throughout. In experiment [4], the inhibition at 10 µM amounted to 13%.
Take `COC(=O)N1CC[C@@H](CN2C(=O)C3(CN(C(=O)OC)C3)N=C2c2ccc(-c3ccc4cccnc4c3)cc2)C1` [compound 963, (S)-methyl 7-((1-(methoxycarbonyl)pyrrolidin-3-yl)methyl)-8-oxo-6-(4-(quinolin-7-yl)phenyl)-2,5,7-triazaspiro[3.4]oct-5-ene-2-carboxylate]: the IC50 in experiment [2] is more than 10000 nM; in experiment [3] it was more than 10000 nM; in experiment [4], approximately 10200 nM. The inhibition at 10 µM in experiment [4] worked out at 62%.
